In patent publication US9580430B2, “9H-pyrimido[4,5-B]indoles and related analogs as BET bromodomain inhibitors” (THE REGENTS OF THE UNIVERSITY OF MICHIGAN, priority 2014, dated 2017):
Like-named read-outs stand apart in the source and are kept apart here.

Key:
recombinant BRD4 BD1 = molecular target: T1, recombinant BRD4 BD1 (Homo sapiens, UniProt O60885); assay: Competitive fluorescence-polarization (FP) binding assay, BRD4 BD1; conditions: for Ki: read-out: Binding affinities (FP) BRD4BD1 Ki; as to IC50 (nM) BRD4 BD1: probe 1.5 nM
T1 construct: for recombinant BRD4 BD1 and BRD4 BD2 proteins
Method: (§1) Fluorescence Polarization (FP) competitive binding studies were carried out using a FAM labeled fluorescent probe (ZBA248 or BRD-1F) to determine binding affinities of representative Compounds of the Disclosure for recombinant BRD4 BD1 and BRD4 BD2 proteins. For example, equilibrium dissociation constants (Kd) values of ZBA248 to these […] proteins were determined from protein saturation experiments by monitoring the total fluorescence polarization of mixtures composed with the fluorescent probe at a fixed concentration and proteins with increasing concentrations up to full saturation. Serial dilutions of testing protein were mixed with ZBA248 to a final volume of 200 μl in the assay buffer. […] Plates were incubated at room temperature for 30 minutes with gentle shaking to assure equilibrium. […] Kd values of ZBA248 were calculated by fitting the sigmoidal dose-dependent FP increases as a function of protein concentrations using Graphpad Prism 6.0 software (Graphpad Software, San Diego, Calif.).
(§2) The IC50 and Ki values of representative Compounds of the Disclosure were determined in a competitive binding experiment as described above. Mixtures of 10 μl of the tested compounds in assay buffer with 40% Ethylene Glycol and 190 μl of preincubated protein/probe complex solution in the assay buffer (100 mM potassium phosphate, pH 6.5, 0.01% Triton X-100) were added into assay plates which were incubated at room temperature for 30 minutes with gentle shaking. Final concentrations of proteins were 10 and 6 nM in assays for BD1 and BD2 of BRD4, respectively. […] FP values were measured as described above. IC50 values were determined by nonlinear regression fitting of the competition curves.

recombinant BRD4 BD2 = molecular target: T2, recombinant BRD4 BD2 (Homo sapiens, UniProt O60885); assay: Competitive fluorescence-polarization (FP) binding assay, BRD4 BD2; conditions: for Ki: read-out: Binding affinities (FP) BRD4BD2 Ki; as to IC50 (nM) BRD4 BD2: probe 1.5 nM
T2 construct: for recombinant BRD4 BD1 and BRD4 BD2 proteins
Method: as §1, §2

MDA-MB-436 = assay: Cell growth inhibition, MDA-MB-436 breast cancer cells (WST-8); format: cell-based; conditions: Homo sapiens, 96 h; MDA-MB-436 cells, 4 days; read-out: Cellular data MDA-MB-436 IC50
Method: All the breast cancer cell lines were obtained from the ATCC. Cell viability was determined using the WST-8 (2-(2-methoxy-4-nitrophenyl)-3-(4-nitrophenyl)-5-(2,4-disulfophenyl)-2H-tetrazolium, monosodium salt) based Cell Counting-8 Kit (Dojindo Molecular Technologies, Inc., Rockville, Md.) according to the manufacture's instruction. […] The absorbance was measured at 450 nm using a SPECTRAmax PLUS plate reader (Molecular Devices, Sunnyvale, Calif.). The IC50 was calculated using the GraphPad Prism 5 software.

MOLM-13 = assay: Cell growth inhibition, MOLM-13 leukemia cells (CellTiter-Glo); format: cell-based; conditions: Homo sapiens, MOLM-13, 96 h; 4 days; read-out: IC50 (nM) MOLM-13 Cell Line (CellTiter-Glo assay)
Method: Cell growth inhibitory activity of representative Compounds of the Disclosure was determined using CellTiter-Glo® Luminescent Cell Viability Assay. […] Cell viability was determined using the CellTiter-Glo® Luminescent Cell Viability Assay Kit (Promega, Madison, Wis.) according to the manufacture's instruction. Briefly, a volume of CellTiter-Glo® Reagent equal to the volume of cell culture medium was added to each well, and then the plates were incubated at room temperature for 10-20 minutes. The luminescent signal was measured using a Tecan Infinite M1000 multimode microplate reader (Tecan, Morrisville, N.C.). The half maximal inhibitory concentration (IC50) was calculated using the GraphPad Prism 5 software (GraphPad Software, La Jolla, Calif.).

[1] = FP competitive binding, BRD4 BD1, read-out: Binding affinities (FP) BRD4BD1 IC50
[2] = FP competitive binding, BRD4 BD1
[3] = FP competitive binding, BRD4 BD2, read-out: Binding affinities (FP) BRD4BD2 IC50
[4] = FP competitive binding, BRD4 BD2
[5] = competitive FP assay, protein 10 nM, probe […], read-out: IC50 (nM) BRD4 BD1
[6] = competitive FP assay, protein 6 nM, probe […], read-out: IC50 (nM) BRD4 BD2

COc1nc2c(cc1-c1c(C)noc1C)[nH]c1nc(C)nc(N(C)c3c(C)cnn3C(C)C)c12 [compound 319, 7-(3,5-dimethylisoxazol-4-yl)-N-(1-isopropyl-4-methyl-1H-pyrazol-5-yl)-6-methoxy-N,2-dimethyl-9H-pyrido[2′,3′:4,5]pyrrolo[2,3-d] pyrimidin-4-amine]
IC50 (recombinant BRD4 BD1; [1]): 102 nM
Ki (recombinant BRD4 BD1; [2]): 38 nM
IC50 (recombinant BRD4 BD2; [3]): 92 nM
Ki (recombinant BRD4 BD2; [4]): 27 nM
IC50 (MDA-MB-436): 646 nM

COc1nc2c(cc1-c1c(C)noc1C)[nH]c1nc(C)nc(Nc3cc(C)nn3C(C)(C)C)c12 [Cpd. No. 310, N-(1-(tert-butyl)-3-methyl-1H-pyrazol-5-yl)-7-(3,5-dimethylisoxazol-4-yl)-6-methoxy-2-methyl-9H-pyrido[2′,3′:4,5]pyrrolo[2,3-d] pyrimidin-4-amine]
IC50 (recombinant BRD4 BD1; [1]): 378 nM
Ki (recombinant BRD4 BD1; [2]): 143 nM
IC50 (recombinant BRD4 BD2; [3]): 313 nM
Ki (recombinant BRD4 BD2; [4]): 113 nM
IC50 (MDA-MB-436): 1280 nM

COc1nc2c(cc1-c1c(C)noc1C)[nH]c1nc(C)nc(N(C)c3cc(C)nn3C(C)(C)C)c12 [compound 316, N-(1-(tert-butyl)-3-methyl-1H-pyrazol-5-yl)-7-(3,5-dimethylisoxazol-4-yl)-6-methoxy-N,2-dimethyl-9H-pyrido[2′,3′:4,5]pyrrolo [2,3-d]pyrimidin-4-amine]
IC50 (recombinant BRD4 BD1; [1]): 317 nM
Ki (recombinant BRD4 BD1; [2]): 106 nM
IC50 (recombinant BRD4 BD2; [3]): 311 nM
Ki (recombinant BRD4 BD2; [4]): 106 nM
IC50 (MDA-MB-436): 1020 nM

COc1nc2c(cc1-c1c(C)noc1C)[nH]c1nc(C)nc(N(C)c3cccc(C)c3)c12 [compound 317, 7-(3,5-dimethylisoxazol-4-yl)-6-methoxy-N,2-dimethyl-N-(m-tolyl)-9H-pyrido[2′,3′:4,5]pyrrolo[2,3-d] pyrimidin-4-amine]
IC50 (recombinant BRD4 BD1; [1]): 74 nM
Ki (recombinant BRD4 BD1; [2]): 27 nM
IC50 (recombinant BRD4 BD2; [3]): 139 nM
Ki (recombinant BRD4 BD2; [4]): 44 nM
IC50 (MDA-MB-436): 1140 nM

COc1nc2c(cc1-c1c(C)noc1C)[nH]c1nc(C)nc(N(C)c3cc(C4CC4)nn3C)c12 [compound 320, N-(3-cyclopropyl-1-methyl-1H-pyrazol-5-yl)-7-(3,5-dimethylisoxazol-4-yl)-6-methoxy-N,2-dimethyl-9H-pyrido[2′,3′:4,5]pyrrolo[2,3-d] pyrimidin-4-amine]
IC50 (recombinant BRD4 BD1; [1]): 10.2 nM
Ki (recombinant BRD4 BD1; [2]): 1.8 nM
IC50 (recombinant BRD4 BD2; [3]): 7 nM
Ki (recombinant BRD4 BD2; [4]): 1.3 nM
IC50 (MDA-MB-436): 85 nM

COc1nc2c(cc1-c1c(C)noc1C)[nH]c1nc(C)nc(Nc3cc(C(C)(C)C)nn3C)c12 [compound 314, N-(3-(tert-butyl)-1-methyl-1H-pyrazol-5-yl)-7-(3,5-dimethylisoxazol-4-yl)-6-methoxy-2-methyl-9H-pyrido[2′,3′:4,5]pyrrolo [2,3-d]pyrimidin-4-amine]
IC50 (recombinant BRD4 BD1; [1]): 457 nM
Ki (recombinant BRD4 BD1; [2]): 146 nM
IC50 (recombinant BRD4 BD2; [3]): 986 nM
Ki (recombinant BRD4 BD2; [4]): 209 nM
IC50 (MDA-MB-436): > 2000 nM

COc1nc2c(cc1-c1c(C)noc1C)[nH]c1nc(C)nc(N(C)c3nn(C)c4ncccc34)c12 [compound 318, 7-(3,5-dimethylisoxazol-4-yl)-6-methoxy-N,2-dimethyl-N-(1-methyl-1H-pyrazolo[3,4-b]pyridin-3-yl)-9H-pyrido[2′,3′:4,5]pyrrolo[2,3-d] pyrimidin-4-amine]
IC50 (recombinant BRD4 BD1; [1]): 35 nM
Ki (recombinant BRD4 BD1; [2]): 12 nM
IC50 (recombinant BRD4 BD2; [3]): 108 nM
Ki (recombinant BRD4 BD2; [4]): 34 nM
IC50 (MDA-MB-436): 299 nM

COc1nc2c(cc1-c1c(C)noc1C)[nH]c1nc(C)nc(N(C)c3cc(C(C)(C)C)nn3C)c12 [compound 315, N-(3-(tert-butyl)-1-methyl-1H-pyrazol-5-yl)-7-(3,5-dimethylisoxazol-4-yl)-6-methoxy-N,2-dimethyl-9H-pyrido[2′,3′:4,5]pyrrolo[2,3-d] pyrimidin-4-amine]
IC50 (recombinant BRD4 BD1; [1]): 28 nM
Ki (recombinant BRD4 BD1; [2]): 7.8 nM
IC50 (recombinant BRD4 BD2; [3]): 16 nM
Ki (recombinant BRD4 BD2; [4]): 4.7 nM
IC50 (MDA-MB-436): 164 nM

COc1cc2c(cc1-c1c(C)noc1C)[nH]c1nc(C)nc(Sc3c[nH]c4ccccc34)c12 [Cpd. No. 26, 4-(4-((1H-indol-3-yl)thio)-6-methoxy-2-methyl-9H-pyrimido[4,5-b]indol-7-yl)-3,5-dimethylisoxazole]
IC50 (recombinant BRD4 BD1; [5]): > 1000 nM
IC50 (recombinant BRD4 BD2; [6]): > 1000 nM

COc1nc2c(cc1-c1c(C)noc1C)[nH]c1nc(C)nc(N(C)C3CCCC3)c12 [compound 321, N-cyclopentyl-7-(3,5-dimethylisoxazol-4-yl)-6-methoxy-N,2-dimethyl-9H-pyrido[2′,3′:4,5]pyrrolo[2,3-d] pyrimidin-4-amine]
IC50 (recombinant BRD4 BD1; [1]): 482 nM
Ki (recombinant BRD4 BD1; [2]): 171 nM
IC50 (recombinant BRD4 BD2; [3]): 796 nM
Ki (recombinant BRD4 BD2; [4]): 239 nM
IC50 (MDA-MB-436): 4430 nM

COc1cc2c3c(N(C)c4cc(C5CC5)nn4C4CN(C)C4)nc(C)nc3n(C)c2cc1-c1c(C)noc1C [compound 258, N-(3-Cyclopropyl-1-(1-methylazetidin-3-yl)-1H-pyrazol-5-yl)-7-(3,5-dimethyl-isoxazol-4-yl)-6-methoxy-N,2,9-trimethyl-9H-pyrimido[4,5-b]indol-4-amine]
IC50 (recombinant BRD4 BD1; [5]): 8.1 nM
IC50 (recombinant BRD4 BD2; [6]): 2.8 nM

COc1nc2c(cc1-c1c(C)noc1C)[nH]c1nc(C)nc(Nc3c(C)cnn3C(C)C)c12 [compound 312, 7-(3,5-dimethylisoxazol-4-yl)-N-(1-isopropyl-4-methyl-1H-pyrazol-5-yl)-6-methoxy-2-methyl-9H-pyrido[2′,3′:4,5]pyrrolo[2,3-d] pyrimidin-4-amine]
IC50 (recombinant BRD4 BD1; [1]): 378 nM
Ki (recombinant BRD4 BD1; [2]): 140 nM
IC50 (recombinant BRD4 BD2; [3]): 346 nM
Ki (recombinant BRD4 BD2; [4]): 101 nM
IC50 (MDA-MB-436): 1060 nM

COc1cc(C)cc(Nc2nc(C)nc3[nH]c4cc(-c5c(C)noc5C)c(OC)cc4c23)c1 [Cpd. No. 218, 7-(3,5-dimethylisoxazol-4-yl)-6-methoxy-N-(3-methoxy-5-methylphenyl)-2-methyl-9H-pyrimido[4,5-b]indol-4-amine]
IC50 (MOLM-13): 9340 nM
IC50 (recombinant BRD4 BD1; [5]): 17 nM
IC50 (recombinant BRD4 BD2; [6]): 15 nM

COc1cc2c(cc1-c1c(C)noc1C)[nH]c1nc(C)nc(Nc3cccc4cccnc34)c12 [Cpd. No. 210, 7-(3,5-dimethylisoxazol-4-yl)-6-methoxy-2-methyl-N-(quinolin-8-yl)-9H-pyrimido[4,5-b]indol-4-amine]
IC50 (MOLM-13): 1130 nM
IC50 (recombinant BRD4 BD1; [5]): > 1000 nM
IC50 (recombinant BRD4 BD2; [6]): > 1000 nM

COc1nc2c(cc1-c1c(C)noc1C)[nH]c1nc(C)nc(Nc3cccc(C)c3)c12 [compound 313, 7-(3,5-dimethylisoxazol-4-yl)-6-methoxy-2-methyl-N-(m-tolyl)-9H-pyrido[2′,3′:4,5]pyrrolo[2,3-d] pyrimidin-4-amine]
IC50 (recombinant BRD4 BD1; [1]): 4070 nM
Ki (recombinant BRD4 BD1; [2]): 1200 nM
IC50 (recombinant BRD4 BD2; [3]): 4070 nM
Ki (recombinant BRD4 BD2; [4]): 1140 nM
IC50 (MDA-MB-436): > 2000 nM

COc1nc2c(cc1-c1c(C)noc1C)[nH]c1nc(C)nc(Nc3nn(C)c4ncccc34)c12 [compound 311, 7-(3,5-dimethylisoxazol-4-yl)-6-methoxy-2-methyl-N-(1-methyl-1H-pyrazolo[3,4-b]pyridin-3-yl)-9H-pyrido[2′,3′:4,5]pyrrolo [2,3-d]pyrimidin-4-amine]
IC50 (recombinant BRD4 BD1; [1]): 1090 nM
Ki (recombinant BRD4 BD1; [2]): 602 nM
IC50 (recombinant BRD4 BD2; [3]): > 1000 nM
IC50 (MDA-MB-436): 1100 nM

COCCn1nc(C2CC2)cc1Nc1nc(C)nc2[nH]c3cc(-c4c(C)noc4C)c(OC)cc3c12 [Cpd. No. 266, N-(3-Cyclopropyl-1-(2-methoxyethyl)-1H-pyrazol-5-yl)-7-(3,5-dimethylisoxazol-4-yl)-6-methoxy-2-methyl-9H-pyrimido[4,5-b]indol-4-amine]
IC50 (recombinant BRD4 BD1; [5]): 10.3 nM
IC50 (recombinant BRD4 BD2; [6]): 3.1 nM
